Reference: patent US6423752B1, “Indane dimer compounds with smooth muscle relaxing and/or mast cell stabilizing and/or anti-inflammatory activity” (Venantius Limited, priority 1995, dated 2002)
Where a name gives a salt, the structure may show the parent alone. Read-outs that look alike come from different tables or passages of the source.

Columns and labels:
[1] = test system: mast cells; assay: Histamine release assay (compound 48/80 stimulated mast cells); assay type: cell-based, Wistar rats; details: 2 × 10^−5 M, rat peritoneal mast cells; for inhibition at 20 µM: Rattus norvegicus, Mast cell, read-out: Percentage Inhibition of Histamine Release
Method: (§1) The compounds were assessed for their ability to stabilize mast cell membranes in vitro. Mast cells treated with the compounds and un-treated mast cells were stimulated to release histamine. A reduction in histamine release by the treated cells compared to the untreated cells indicates stabilisation of the membrane. The compounds were assessed for their ability to relax smooth muscle in vitro. Intestinal smooth muscle was stimulated to contract, using calcium chloride and subsequently treated with the compounds, relaxation of the contraction was measured for each compound. The effects of the compounds were also studied on relaxation of guinea-pig tracheal muscle. In the rat paw oedema test, the drugs were administered systemically prior to inducing inflammation by the injection of carageenan below the plantar aponeurosis of the hind paw. The volume of the paw was determined both before and after treatment as an index of oedema. In the mouse ear oedema test, the drugs were administered topically prior to inducing inflammation by the topical application of arachidonic acid. The width of the ear was determined both before and after treatment as an index of oedema.
The buffered salt solution (BSS) was prepared in advance (NaCl 137 mM; KCl 2.7 mM; MgCl2 1.0 mM; CaCl2 0.5 mM, NaH2PO4 0.4 mM; Glucose 5.6 mM; HEPES 10 mM). This was dispensed into test tubes and heated to 37° C., each test tube contained 4.5 ml BSS. The solvent blank was supplemented with 0.5% (v/v) dimethyl sulphoxide (DMSO) or 0.5% (v/v) distilled water (dH2O). The two positive controls were supplemented with 0.5% (v/v) dH2O/2×10^−5M disodium cromoglycate (DSCG) and 0.5% (v/v) DMSO/2×10^−5M DSCG. The test compounds' incubation tubes contained 2×10^−5M test compound/0.5% (v/v) DMSO. The basal release, maximum release and total histamine content incubation tubes contained no additions.
Female Wistar rats (200-300 g) were killed in an atmosphere of saturated CO2. Pre-warmed BSS (10 ml) was injected i.p. and the abdomen was massaged for 3 min. The BSS, with suspended mast cells and other cells, was aspirated following a mid-line incision. The aspirate was centrifuged for 5 min at 400 g and the supernatant removed. The cells were re-suspended in BSS, at 4° C., and centrifuged as before the cells were washed in this manner a total of three times. Following the final wash, the pelleted cells were stored at 4° C., for use as soon as possible.
The cells were re-suspended in 7 ml BSS. From this, 0.5 ml aliquots were transferred to each of the incubation tubes. After 10 min at 37° C. with gentle agitation, Compound 48/80 was added to a final concentration of […], in order to stimulate histamine release. The cell stimulation was stopped after 2 min by the addition of 0.5 ml ice cold BSS, the incubation tubes were transferred to an ice bath. The cell suspensions were centrifuged for 5 min at 400 g. The “total histamine content” tube was placed at 100° C. for 2 min prior to centrifugation. The supernatants were retained for histamine assay.
To 2 ml of supernatant from each tube was added 0.4 ml of 1M NaOH and 0.1 ml oPT (1% (w/v) in methanol). This was incubated at room temperature for 4 min. The reaction was stopped by the addition of 0.2 ml of 3M HCl. The supernatant from each incubation tube was assayed in duplicate and run simultaneously with a standard curve in the range 0-1000 ng/ml. The presence of the fluorescent product of the reaction was measured using a Shimazu RF-1501 spectrofluorophotometer set at λex=360 nm, λem=450 nm.
Each drug was tested on at least five animals (n=5). The results were expressed as a percentage of maximum, compound 48/80 induced, histamine release in the solvent blank sample. Each drug was compared to DSCG on the same tissues. The basal histamine release in untreated cells was noted, expressed as a percentage of the total histamine content of the cells in suspension. […]

[2] = test system: ileum; assay: Smooth muscle effects: CaCl2 induced contractions of ileum; set-up: species or system Guinea pigs; details: for inhibition at 3 µM / inhibition at 0.3 µM / inhibition at 0.03 µM / inhibition at 10 µM / inhibition at 1 µM / inhibition at 0.1 µM: Cavia porcellus, read-out: Percentage Inhibition of CaCl2 Induced Contractions
Method: as §1
(§2) Guinea pigs (350 g approx.), of either sex, were killed in an atmosphere of saturated CO2. The abdomen was opened by a mid-line incision and the small intestine was removed. The trachea was removed and sectioned between the cartilage rings, which were then split through.
(§3) Segments of ileum (1-1.5 cm) were suspended in a high potassium, no calcium Krebs buffer (NaCl 160.44 mM); KCl 45 mM; MgCl2 0.54 mM; NaH2PO4 0.89 mM; NaH2CO3 24.9 mM; Glucose 11.1 mM). Tracheal sections were suspended in normal Krebs buffer (NaCl […]; KCl 4.7 mM; CaCl2 2.5 mM; MgCl2 0.54 mM; NaH2PO4 0.89 mM; NaHCO3 24.9 mM; Glucose 11.1 mM). The solutions were maintained at 37° C. by a jacketed organ bath and gassed with 95% O2 and 5% CO2. The tissues were anchored by thread to the bottom of the organ bath and suspended from force displacement transducers under a resting tension of 1 g approx. in the case of ileum and 4 g approx. in the case of trachea. Isotonic contractions were recorded using a MacLab/4e system in conjunction with the Chart 3.3.1 software package. Surplus tissue was stored at 4° C. in Krebs buffer, for a maximum of 48 hours.
(§4) Four segments of tissue were suspended and observed concurrently. Contractions were initiated by the addition of 25 μl of 1M CaCl2 (a final concentration of 2.5 mM). The contractions stabilized with time, 10-15 min, and could be maintained for up to 45 min. from the addition of the CaCl2. The tracheal sections were allowed to develop spontaneous resting tension over a period of 30 mins.
Stock solutions of drug were prepared at 10^−3M in 50% (v/v) DMSO. These were diluted to give; 10^−4M in 5% (v/v) DMSO and 10^−5M in 0.5% (v/v) DMSO. In cases of poor solubility the 10^−3M stock was made up in higher concentrations of DMSO. Solvent ‘blank’ solutions were prepared containing 50%, 5% and 0.5% (v/v) DMSO (or as appropriate). […] A second cumulative dose-response assay was carried out using DMSO ‘blank’ solutions only.
(§5) Each drug was tested, in duplicate, on at least three different animals (n=3). The results were expressed as percentage inhibition of the CaCl2 induced contraction in the case of ideal tissue and percentage relaxation in the case of tracheal tissue, for each tissue, at each concentration of drug in DMSO. The effect of DMSO, for each tissue at each concentration, was subtracted from the effect of the drug in DMSO, to give the effect of the drug alone. A log dose vs. response curve was plotted for each drug using the mean and the standard error of the mean for the cumulated results.

[3] = test system: trachea; assay: Smooth muscle effects: spontaneous tone of tracheal sections; set-up: species or system Guinea pigs; details: Cavia porcellus, guinea pig trachea, percentage relaxation
Method: as §1, §2, §3, §4
Stock solutions of drug were prepared at 10^−3M in 50% (v/v) DMSO. These were diluted to give; 10^−4M in 5% (v/v) DMSO and 10^−5M in 0.5% (v/v) DMSO. In cases of poor solubility the 10^−3M stock was made up in higher concentrations of DMSO. Solvent ‘blank’ solutions were prepared containing 50%, 5% and 0.5% (v/v) DMSO (or as appropriate). A cumulative dose-response assay was carried out in the range 5×10^−8M to 10^−5M. A second cumulative dose-response assay was carried out using DMSO ‘blank’ solutions only.
as §5

[4] = 3 × 10^−6 M, guinea pig ileum, DMSO effect subtracted
[5] = 3 × 10^−7 M, guinea pig ileum, DMSO effect subtracted
[6] = 3 × 10^−8 M, guinea pig ileum, DMSO effect subtracted
[7] = 10^−5 M, guinea pig ileum, DMSO effect subtracted
[8] = 10^−6 M, guinea pig ileum, DMSO effect subtracted
[9] = 10^−7 M, guinea pig ileum, DMSO effect subtracted

## O=C1CC(NC2CCc3ccccc32)c2ccccc21 (centres unmarked) [Compound 5C3, 3-(N-1-indanylamino)-indan-1-one]
[1]
  Percentage Inhibition of Histamine Release: 32.77%
[2]; [4]
  inhibition at 3 µM: 15.1%
[2]; [5]
  inhibition at 0.3 µM: 3.78%
[2]; [6]
  inhibition at 0.03 µM: 0.53%
[2]; [7]
  inhibition at 10 µM: 30%
[2]; [8]
  inhibition at 1 µM: 7.21%
[2]; [9]
  inhibition at 0.1 µM: 2.61%

## C=CCN(C1Cc2ccccc2C1)C1CC(=O)c2ccccc21 (centres unmarked) [Compound 6C12, 3-(N-prop-2-enyl-N-2-indanylamino)-indan-1-one hydrochloride]
[1]; hydrochloride
  Percentage Inhibition of Histamine Release: 91.35%

## Cc1ccc(S(=O)(=O)N(C2CCc3ccccc32)C2CC(=O)c3ccccc32)cc1 (centres unmarked) [Compound 5C10, N-1-Indanyl-N-3-indan-1-onyl-p-toluenesulfonamide]
[1]
  inhibition at 20 µM: 40.8%

## O=C1CC(NC2Cc3ccccc3C2)c2ccccc21 (centres unmarked) [Compound 6C4, 3-(N-2-indanylamino)-indan-1-one]
[1]
  Percentage Inhibition of Histamine Release: 14.92%
[2]; [4]
  Percentage Inhibition of CaCl2 Induced Contractions: 17.11%
[2]; [5]
  Percentage Inhibition of CaCl2 Induced Contractions: 4.63%
[2]; [6]
  Percentage Inhibition of CaCl2 Induced Contractions: 2.16%
[2]; [7]
  Percentage Inhibition of CaCl2 Induced Contractions: 33.46%
[2]; [8]
  Percentage Inhibition of CaCl2 Induced Contractions: 8.84%
[2]; [9]
  Percentage Inhibition of CaCl2 Induced Contractions: 3.02%

## O=C1CC(N(Cc2ccccc2)C2CCc3ccccc32)c2ccccc21 (centres unmarked) [Compound 5C7, 3-(N-benzyl-N-1-indanylamino)-indan-1-one]
[1]
  inhibition at 20 µM: 24.1%
[2]
  inhibition at 0.03 µM: 0.16%
  inhibition at 0.1 µM: -0.44%
  inhibition at 0.3 µM: -0.36%
  inhibition at 1 µM: -1.72%
  inhibition at 3 µM: 0%
  inhibition at 10 µM: 2.06%

## C=CCN(C1CCc2ccccc21)C1CC(=O)c2ccccc21 (centres unmarked) [5C6 TR]
[1]
  inhibition at 20 µM: 80%
[3]; 3 × 10^−6 M
  inhibition at 3 µM: 1.5%
[3]; 10^−5 M
  inhibition at 10 µM: 4.97%

## OC1CC(NC2CCc3ccccc32)c2ccccc21 (centres unmarked) [Compound 5C4, 3-(N-1-indanylamino)indan-1-ol]
[1]
  inhibition at 20 µM: 5.68%
[2]; [4]
  inhibition at 3 µM: 5.08%
[2]; [5]
  inhibition at 0.3 µM: -0.99%
[2]; [6]
  inhibition at 0.03 µM: -0.86%
[2]; [7]
  inhibition at 10 µM: 19.1%
[2]; [8]
  inhibition at 1 µM: 1.15%
[2]; [9]
  inhibition at 0.1 µM: -0.86%

## C=CCN(C1CCc2ccccc21)C1CC(=O)c2ccccc21 (centres unmarked) [Compound 5C11, 3-(N-prop-2-enyl-N-1-indanylamino)-indan-1-one hydrochloride]
[1]; hydrochloride
  Percentage Inhibition of Histamine Release: 90.27%

## O=C1CC(NC2CCc3ccccc32)c2ccccc21 (centres unmarked) [Compound 5C8, 3-(N-1-indanylamino) -indan-1-one. Hydrochloride]
[1]; hydrochloride
  Percentage Inhibition of Histamine Release: 14.33%

## O=C1CC(N(Cc2ccccc2)C2Cc3ccccc3C2)c2ccccc21 (centres unmarked) [Compound 6C8, 3-(N-benzyl-N-2-indanylamino)-indan-1-one]
[1]
  inhibition at 20 µM: 88.6%
[2]
  inhibition at 0.03 µM: 1.97%
  inhibition at 0.1 µM: 2.94%
  inhibition at 0.3 µM: 3.26%
  inhibition at 1 µM: 4.69%
  inhibition at 3 µM: 11.3%
  inhibition at 10 µM: 31.1%

## CN(C1CCc2ccccc21)C1CC(=O)c2ccccc21 (centres unmarked) [Compound 5C5, 3-(N-methyl-N-1-indanylamino)-indan-1-one]
[1]
  inhibition at 20 µM: 58.7%
[2]; [4]
  inhibition at 3 µM: 3.56%
[2]; [5]
  inhibition at 0.3 µM: 0.43%
[2]; [6]
  inhibition at 0.03 µM: -0.26%
[2]; [7]
  inhibition at 10 µM: 10.5%
[2]; [8]
  inhibition at 1 µM: 1.56%
[2]; [9]
  inhibition at 0.1 µM: 0.28%

## C=CCN(C1CCc2ccccc21)C1CC(=O)c2ccccc21 (centres unmarked) [5C6 BR]
[1]
  Percentage Inhibition of Histamine Release: 78.84%
[2]; [4]
  inhibition at 3 µM: 8.72%
[2]; [7]
  inhibition at 10 µM: 31.6%

## O=C1CC(NC2Cc3ccccc3C2)c2ccccc21 (centres unmarked) [Compound 6C9, 3-(N-2-indanylamino)indan-1-one. Hydrochloride]
[1]; hydrochloride
  Percentage Inhibition of Histamine Release: 43.60%
[2]; 3 × 10^−6 M, guinea pig ileum, DMSO effect subtracted, Hydrochloride
  Percentage Inhibition of CaCl2 Induced Contractions: −0.86%
[2]; 3 × 10^−7 M, guinea pig ileum, DMSO effect subtracted, Hydrochloride
  Percentage Inhibition of CaCl2 Induced Contractions: −1.76%
[2]; 3 × 10^−8 M, guinea pig ileum, DMSO effect subtracted, Hydrochloride
  Percentage Inhibition of CaCl2 Induced Contractions: 0.31%
[2]; 10^−5 M, guinea pig ileum, DMSO effect subtracted, Hydrochloride
  Percentage Inhibition of CaCl2 Induced Contractions: 1.58%
[2]; 10^−6 M, guinea pig ileum, DMSO effect subtracted, Hydrochloride
  Percentage Inhibition of CaCl2 Induced Contractions: −2.94%
[2]; 10^−7 M, guinea pig ileum, DMSO effect subtracted, Hydrochloride
  Percentage Inhibition of CaCl2 Induced Contractions: 0.61%
